Measurements: the NIST ThermoML archive (doi:10.1016/j.fluid.2006.05.029)
± gives the expanded uncertainty stated by the source.

Assays:
[1] = refractive index (Na D-line) (dimensionless); conditions: 298.15 K; 101.33 kPa; Liquid; Standard Abbe refractometry
[2] = 298.15 K, 101.33 kPa, Liquid

| SMILES | refractive index [1] | mass density ([2]; Pycnometric method) | mass density [2] |
| --- | --- | --- | --- |
| CO [methanol] | 1.3262 ± 0.0007 | 786.49 ± 0.71 kg/m3 |  |
| COC(=O)OC [dimethyl carbonate] | 1.3672 ± 0.0008 |  | 1063.33 ± 1.3 kg/m3 |
